Common to all, as to type: in vivo
The test system of experiment [1] is Colletotrichum orbiculare. Description: Test I: cucumber Colletotrichum anthracnose, preventive spray on cucumber seedlings. The settings on record: 100 = 100% disease control, 0 = no control relative to controls; for Test I disease control rating: 200 ppm. Put shortly: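 Preventive foliar spray to run-off on cucumber seedlings, at 200 ppm (stated as equal to 500 g/ha) or 40 ppm. Test suspensions were made in acetone/water 50/50 containing 250 ppm Trem 014, after first dissolving compound in acetone at 3% of final volume.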

Experiment [2] has as its system Pythium aphanidermatum. Description: Test M: bluegrass pythium blight, preventive spray on bluegrass seedlings. The settings on record: 200 ppm; 100 = 100% disease control, 0 = no control relative to controls. The source says: (§1) General protocol for preparing test suspensions for Tests A-R: The test compounds were first dissolved in acetone in an amount equal to 3% of the final volume and then suspended at the desired concentration (in ppm) in acetone and purified water (50/50 mix) containing 250 ppm of the surfactant Trem® 014 (polyhydric alcohol esters). The resulting test suspensions were then used in tests A-R. In Tests A-M, compounds were sprayed as a 200 ppm test suspension (equivalent to a rate of 500 g/ha) or as a 40 ppm test suspension to the point of runoff on the test plants. In Tests N-R, compounds were sprayed as a 100 g/ha test suspension (equivalent to a rate of 100 ppm) on the test plants at an application volume of 1000 L/ha. The test suspension was sprayed to the point of run-off on bluegrass seedlings.

In experiment [3] the test system is Septoria nodorum. The experiment can be described thus: Test C: wheat glume blotch, preventive spray on wheat seedlings. The settings on record: 200 ppm, 100 = 100% disease control, 0 = no control relative to controls. The essentials:
(§2)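 Each test compound, pre-dissolved in acetone, was suspended in aqueous acetone containing surfactant and sprayed onto the plants to the point of run-off at 200 or 40 ppm.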

The subject of experiment [4] is Erysiphe graminis f. sp. tritici. The experiment can be described thus: Test A: wheat powdery mildew, preventive spray on wheat seedlings. The settings on record: 200 ppm, 100 = 100% disease control, 0 = no control relative to controls. The essentials:
as §2

The subject of experiment [5] is Phytophthora infestans. Particulars: 200 ppm; 100 = 100% disease control, 0 = no control relative to controls.
For experiment [6], the system named is Rhizoctonia oryzae. Description: Test J: turf brown patch, preventive spray on creeping bent grass seedlings. The settings on record: 200 ppm; 100 = 100% disease control, 0 = no control relative to controls.
Text: as §1, with “creeping bent grass” for “bluegrass”

Experiment [7] deals with Fusarium graminearum. The experiment can be described thus: whole plant or invertebrate. The settings on record: for Test E disease control rating: 200 ppm, 100 = 100% disease control, 0 = no control relative to controls.
The subject of experiment [8] is Puccinia recondita f. sp. tritici. The experiment can be described thus: Test B: wheat leaf rust, preventive spray on wheat seedlings. The settings on record: 200 ppm, 100 = 100% disease control, 0 = no control relative to controls. Put shortly:
as §2

Experiment [9] relates to Plasmopara viticola. The experiment can be described thus: Test L: grape downy mildew, spray after inoculation of grape seedlings. The settings on record: 200 ppm; 100 = 100% disease control, 0 = no control relative to controls.
Text: as §1, with “L/ha. Grape seedlings were inoculated with a spore suspension of Plasmopara viticola (the causal agent of grape downy mildew) and incubated in a saturated atmosphere at 20° C. for 24 h. After a short drying period, the” for “L/ha. The”, “on the grape seedlings and then moved to a growth chamber at 20° C. for 6 days, after which time the test units were placed back into a saturated atmosphere at 20° C. for 24 h. Upon removal, disease ratings were made.” for “on bluegrass seedlings.”

The test system of experiment [10] is Botrytis cinerea. Description: Test F: tomato Botrytis, preventive spray on tomato seedlings. The settings on record: 200 ppm, 100 = 100% disease control, 0 = no control relative to controls. The essentials:
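Preventive run-off spray onto tomato seedlings at 200 ppm (equivalent to 500 g/ha) or 40 ppm. Suspensions: compound predissolved in acetone at 3% of final volume, then taken up in acetone/purified water 50/50 containing 250 ppm Trem® 014 surfactant.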

For the compound `COCC(C)Nc1nccc(-c2ccnc(Nc3ccc(F)cc3)c2)n1` (centres unmarked) [Compound 50], the “Test I disease control rating” value in [1] is recorded as 96%. Also, the “Test M disease control rating” value in experiment [2] turned out to be 0%. Further, the “Test C disease control rating” value in experiment [3] amounted to 84%. Moreover, the “Test A disease control rating” value in [4] turned out to be 0%. In experiment [5], the “Test K disease control rating” value was found to be 0%. For the same compound, in experiment [6], the “Test J disease control rating” value was determined as 0%. Moreover, the “Test E disease control rating” value in [7] is on record as 72%. In experiment [8], the “Test B disease control rating” value came out at 99%. Besides, the “Test L disease control rating” value in [9] was determined as 0%. In addition, the “Test F disease control rating” value in experiment [10] was 94%.
On to `COCC(C)Nc1nccc(-c2ccnc(Nc3ccc(F)cc3F)c2)n1` (centres unmarked) [Compound 47], for which the “Test I disease control rating” value in [1] was determined as 40%. For the same compound, the “Test M disease control rating” value in experiment [2] is 0%. Moreover, the “Test C disease control rating” value in experiment [3] was 0%. The “Test A disease control rating” value in experiment [4] worked out at 0%. Moreover, the “Test K disease control rating” value in experiment [5] amounted to 0%. For the same compound, in experiment [6], the “Test J disease control rating” value worked out at 0%. In experiment [7], the “Test E disease control rating” value was 92%. Moreover, the “Test B disease control rating” value in [8] came to 85%. Further, in experiment [9], the “Test L disease control rating” value is 0%. The “Test F disease control rating” value in [10] is given as 0%.
As to `COCC(C)Nc1nccc(-c2ccnc(Nc3cccc(C)c3)c2)n1` (centres unmarked) [Compound 51], the “Test I disease control rating” value in [1] turned out to be 92%. Further, the “Test M disease control rating” value in experiment [2] stood at 0%. The “Test C disease control rating” value in experiment [3] is given as 98%. The “Test A disease control rating” value in [4] is on record as 88%. Moreover, the “Test K disease control rating” value in experiment [5] worked out at 0%. Further, in experiment [6], the “Test J disease control rating” value is 0%. Besides, the “Test E disease control rating” value in [7] was 48%. In addition, the “Test B disease control rating” value in [8] stood at 99%. Moreover, the “Test L disease control rating” value in experiment [9] amounted to 0%. In experiment [10], the “Test F disease control rating” value is listed as 99%.
`COCC(C)Nc1cc(-c2ccnc(Nc3ccccc3)n2)ncn1` (centres unmarked) [Compound 108]: in experiment [1], the “Test I disease control rating” value turned out to be 0%. Besides, the “Test M disease control rating” value in [2] turned out to be 0%. Further, the “Test C disease control rating” value in [3] is recorded as 0%. Besides, the “Test A disease control rating” value in experiment [4] worked out at 0%. Further, in [5], the “Test K disease control rating” value was found to be 0%. For the same compound, the “Test J disease control rating” value in experiment [6] was determined as 0%. Further, in experiment [7], the “Test E disease control rating” value came out at 98%. Further, in experiment [8], the “Test B disease control rating” value turned out to be 80%. The “Test L disease control rating” value in experiment [9] was 0%. For the same compound, the “Test F disease control rating” value in [10] came to 38%.
For the compound `COCC(C)Nc1cc(-c2ccnc(Nc3cccc(Cl)c3)n2)ncn1` (centres unmarked) [Compound 105, N^2-(3-chlorophenyl)-N^6′-(2-methoxy-1-methylethyl) [4,4′-bipyrimidine]-2,6′-diamine], the pest or weed control at 200 ppm amounted to 0% in experiment [1] (Colletotrichum orbiculare, 144 h, read-out: Test I disease control rating); 92% in experiment [3] (Parastagonospora nodorum, 216 h, read-out: Test C disease control rating); 0% in experiment [4] (Blumeria graminis, 192 h, read-out: Test A disease control rating); 73% in [7] (Fusarium graminearum, in Triticum aestivum, 192 h, read-out: Test E disease control rating); 97% in experiment [8] (Puccinia recondita, 192 h, read-out: Test B disease control rating); 78% in experiment [10] (Botrytis cinerea, 120 h, read-out: Test F disease control rating). In experiment [2], the “Test M disease control rating” value was 0%. Further, the “Test K disease control rating” value in experiment [5] is 0%. Moreover, the “Test J disease control rating” value in experiment [6] worked out at 0%. The “Test L disease control rating” value in [9] amounted to 0%.
Turning to `COCC(C)Nc1nccc(-c2ccnc(Nc3cccc(Cl)c3F)c2)n1` (centres unmarked) [Compound 46], the “Test I disease control rating” value in [1] amounted to 0%. In addition, the “Test M disease control rating” value in experiment [2] was determined as 0%. The “Test C disease control rating” value in [3] worked out at 97%. The “Test A disease control rating” value in experiment [4] was 0%. Also, the “Test K disease control rating” value in experiment [5] is recorded as 0%. The “Test J disease control rating” value in experiment [6] is on record as 0%. Moreover, in experiment [7], the “Test E disease control rating” value came to 94%. For the same compound, in experiment [8], the “Test B disease control rating” value is listed as 91%. Further, the “Test L disease control rating” value in experiment [9] stood at 0%. In experiment [10], the “Test F disease control rating” value was determined as 7%.
For the compound `COCC(C)Nc1nccc(-c2ccnc(Nc3ccccc3)c2)n1` (centres unmarked) [Compound 43], the “Test I disease control rating” value in [1] is reported as 90%. Further, the “Test M disease control rating” value in experiment [2] is listed as 0%. For the same compound, the “Test C disease control rating” value in experiment [3] amounted to 99%. Also, the “Test A disease control rating” value in experiment [4] is recorded as 29%. In addition, the “Test K disease control rating” value in experiment [5] worked out at 0%. For the same compound, the “Test J disease control rating” value in experiment [6] came out at 9%. Moreover, in experiment [7], the “Test E disease control rating” value is listed as 100%. Further, in experiment [8], the “Test B disease control rating” value turned out to be 99%. In addition, the “Test L disease control rating” value in [9] was 0%. Besides, in experiment [10], the “Test F disease control rating” value is given as 92%.
Turning to `COCC(C)Nc1nccc(-c2ccnc(Nc3c(F)cccc3F)c2)n1` (centres unmarked) [Compound 49], the “Test I disease control rating” value in [1] is recorded as 67%. Moreover, in [2], the “Test M disease control rating” value is on record as 0%. For the same compound, in [3], the “Test C disease control rating” value was determined as 92%. Further, in experiment [4], the “Test A disease control rating” value was 86%. Further, the “Test K disease control rating” value in [5] is recorded as 0%. For the same compound, the “Test J disease control rating” value in experiment [6] is on record as 0%. For the same compound, the “Test E disease control rating” value in experiment [7] amounted to 81%. Besides, in experiment [8], the “Test B disease control rating” value amounted to 99%. Besides, the “Test L disease control rating” value in [9] is 0%. The “Test F disease control rating” value in experiment [10] is on record as 90%.
As to `COCC(C)Nc1nccc(-c2ccnc(Nc3cccc([N+](=O)[O-])c3)c2)n1` (centres unmarked) [Compound 44], the “Test I disease control rating” value in experiment [1] was determined as 40%. The “Test M disease control rating” value in experiment [2] came out at 0%. Besides, in [3], the “Test C disease control rating” value was found to be 98%. In addition, in experiment [4], the “Test A disease control rating” value was 0%. For the same compound, the “Test K disease control rating” value in experiment [5] came to 0%. In addition, in [6], the “Test J disease control rating” value is recorded as 0%. The “Test E disease control rating” value in experiment [7] turned out to be 99%. The “Test B disease control rating” value in experiment [8] turned out to be 89%. Besides, in [9], the “Test L disease control rating” value turned out to be 0%. In addition, the “Test F disease control rating” value in experiment [10] was 0%.
For the compound `CC(C)(C)Nc1nccc(-c2ccnc(Nc3cccc(F)c3)c2)n1` [Compound 45], in [1], the “Test I disease control rating” value is listed as 8%. Also, in experiment [2], the “Test M disease control rating” value turned out to be 0%. Also, in experiment [3], the “Test C disease control rating” value is recorded as 98%. Besides, in [4], the “Test A disease control rating” value worked out at 77%. Further, the “Test K disease control rating” value in experiment [5] amounted to 0%. Besides, in [6], the “Test J disease control rating” value stood at 0%. Further, the “Test E disease control rating” value in experiment [7] is 90%. The “Test B disease control rating” value in [8] was 79%. Besides, the “Test L disease control rating” value in [9] worked out at 0%. In [10], the “Test F disease control rating” value was found to be 20%.
In the case of `CC(CO)Nc1nccc(-c2ccnc(Nc3cccc(F)c3)c2)n1` (centres unmarked) [Compound 48], the “Test I disease control rating” value in [1] amounted to 26%. Further, the “Test M disease control rating” value in [2] stood at 0%. Also, the “Test C disease control rating” value in [3] stood at 87%. Also, in [4], the “Test A disease control rating” value was 0%. In addition, the “Test K disease control rating” value in experiment [5] worked out at 0%. The “Test J disease control rating” value in experiment [6] is recorded as 0%. In addition, in [7], the “Test E disease control rating” value came out at 0%. For the same compound, in experiment [8], the “Test B disease control rating” value was determined as 99%. For the same compound, the “Test L disease control rating” value in experiment [9] was determined as 0%. In experiment [10], the “Test F disease control rating” value turned out to be 15%.

These data come from patent publication US8026359B2, “Fungicidal heterocyclic amines” (E.I. du Pont de Nemours and Company, priority 2007, dated 2011).
